Measurements: publication PMC12820429, “Modulating food intake by nasal application of peptides targeting melanocortin 4 receptor and ghrelin receptor systems” (Brain Communications, 2026)

Target: T1, MC4R (Homo sapiens, UniProt P32245)
T1 construct: expressed in transfected cells; host or cells: HEK293 (transient transfection, pcDNA3_MC4R plus CRE-luciferase reporter pGL4.29)
Experiment: cAMP reporter gene assay
Type: cell-based
Conditions: normalized to maximal setmelanotide response; n ≥ 2
Protocol: HEK293 cells were cultured under standard conditions.[33] Cyclic adenosine monophosphate (cAMP) reporter gene assay was carried out with HEK293 cells transiently transfected with pGL4.29[luc2P/CRE/Hygro] (Promega, Madison, WI, USA) and pcDNA3_MC4R plasmids. For transfection, a master mix consisting of 0.6 µL Lipofectamine (Invitrogen by Thermo Fisher) per 25 µL Opti-MEM (Gibco, Grand Island, NY, USA) per well was preincubated at room temperature for 5 min and then gently mixed with 0.125 µg of both plasmids per 25 µL Opti-MEM per well and incubated for 30 min at room temperature. […] Two hundred microlitres of the mixture was added per well to a white 96-well plate (Greiner Bio-One International GmbH, Kremsmünster, Austria), previously coated with 0.1 mg/mL poly-D-lysine (Sigma-Aldrich) in Dulbecco’s phosphate-buffered saline (DPBS) for 1 h at room temperature. Cells were incubated overnight at humidified atmosphere (37°C, 5% CO2). […] The medium was removed, and cells were starved in 50 μL of DMEM/F12 (1:1) without FBS at humidified atmosphere for 1 h. One millimolar peptide stocks in dimethyl sulfoxide (DMSO, Sigma-Aldrich) were diluted in DMEM/F12 (1:1) to desired concentrations. […] The plate was transferred to a plate reader (Infinite M200, Tecan Trading AG, Männedorf, Switzerland), briefly shaken and incubated 5 min at room temperature. […]

T1 sequence (P32245 whole entry, species assumed): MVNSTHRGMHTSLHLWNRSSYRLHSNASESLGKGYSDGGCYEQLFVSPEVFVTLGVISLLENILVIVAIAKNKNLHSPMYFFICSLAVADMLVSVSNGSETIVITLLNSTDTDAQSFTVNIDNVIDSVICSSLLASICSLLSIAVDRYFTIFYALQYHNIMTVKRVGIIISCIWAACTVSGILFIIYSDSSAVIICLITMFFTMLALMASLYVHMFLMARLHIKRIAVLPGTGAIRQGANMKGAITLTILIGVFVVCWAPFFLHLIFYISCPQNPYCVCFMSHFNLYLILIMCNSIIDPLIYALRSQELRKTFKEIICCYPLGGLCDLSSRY

**Q.** With `CC(=O)N[C@@H](CCCNC(=N)N)C(=O)N[C@H]1CSSC[C@@H](C(N)=O)NC(=O)[C@H](Cc2c[nH]c3ccccc23)NC(=O)[C@H](CCCNC(=N)N)NC(=O)[C@@H](Cc2ccccc2)NC(=O)[C@H](Cc2c[nH]cn2)NC(=O)[C@@H](C)NC1=O` [peptide 1.1, Ac-R^bCaHfRW^bC-NH2] as the compound, how does the Emax read?
**A.** 100 ± 4%
